According to patent publication US8828988B2 (Tetraphase Pharmaceuticals, Inc., priority 2009, dated 2014):
Converted amounts (≈) assume the structure as drawn. Read-outs that look alike come from different tables or passages of the source.

Legend:
[1] = tested on: Staphylococcus aureus SA101, ATCC 29213, MSSA; test: MIC assay, SA101; type: cell-based
[2] = tested on: Staphylococcus aureus SA100, ATCC 13709, MSSA, Smith strain; test: MIC assay, SA100; type: cell-based
[3] = tested on: Staphylococcus aureus SA161, HA-MRSA, tetracycline-resistant, tet(M); test: MIC assay, SA161; type: cell-based
[4] = tested on: Staphylococcus aureus SA158, tetracycline-resistant tet(K); test: MIC assay, SA158; type: cell-based
[5] = tested on: Enterococcus faecalis EF103, ATCC 29212; test: MIC assay, EF103; type: cell-based
[6] = tested on: Enterococcus faecalis EF159, tetracycline-resistant, tet(M); test: MIC assay, EF159; type: cell-based
[7] = tested on: Streptococcus pneumoniae SP106, ATCC 49619; test: MIC assay, SP106; type: cell-based
[8] = tested on: Streptococcus pneumoniae SP160, tetracycline-resistant, tet(M); test: MIC assay, SP160; type: cell-based
[9] = tested on: Escherichia coli EC107, ATCC 25922; test: MIC assay, EC107; type: cell-based
[10] = tested on: Escherichia coli EC155, tetracycline-resistant, tet(A); test: MIC assay, EC155; type: cell-based
[11] = tested on: Klebsiella pneumoniae KP109, ATCC 13883; test: MIC assay, KP109; type: cell-based; conditions: ATCC13883, Table 9, read-out: MIC Klebsiella pneum ATCC 13883
[12] = tested on: Klebsiella pneumoniae KP153, tetracycline-resistant, tet(A), MDR, ESBL+; test: MIC assay, KP153; type: cell-based; conditions: Table 9, read-out: MIC Klebsiella pneum KP153 (tet)A
[13] = tested on: E. faecalis clinical isolates; test: MIC50, MIC90 and MIC range, panel of clinical isolates (Example 20); type: cell-based; conditions: 24 isolates, in µg/mL
Procedure: (§1) The assays were run as follows.
(§2) Both values, as well as the MIC range (the lowest and highest MIC value observed for a collection of organisms), were determined for the isolates listed in Table 3.

[14] = tested on: S. aureus clinical isolates; test: as above; type: cell-based; conditions: MRSA, 30 isolates; in µg/mL
Procedure: as §1, §2

[15] = tested on: S. pneumoniae clinical isolates; test: as above; type: cell-based; conditions: 19 isolates, in µg/mL
Procedure: as §1, §2

[16] = tested on: E. coli DH10B(pBAD-tetK), expressing tet(K); test: MIC against recombinant E. coli expressing tet(K); type: cell-based; conditions: for MIC: Escherichia coli
Description: (§3) Constructs were transformed into E. coli DH10B for expression. Recombinant strains were pre-induced under optimized conditions with L-arabinose prior to use as inocula in CLSI standardized MIC assays.

[17] = tested on: E. coli DH10B(pBAD-tetM), expressing tet(M); test: MIC against recombinant E. coli expressing tet(M); type: cell-based; conditions: for MIC: Escherichia coli
Description: as §3

[18] = tested on: E. coli S30 extract system, coupled in vitro transcription/translation, firefly luciferase readout; test: In vitro transcription/translation (TnT) assay; type: biochemical; conditions: Table 8
in vivo = conditions: Sprague-Dawley, rat
[19] = tested on: S. pneumoniae isolates (Eurofins-Medinet, recent clinical isolates); test: MIC50 and MIC90 analysis (Example 22)
Procedure: (§4) Frozen bacterial strains were thawed and subcultured onto Mueller Hinton Broth (MHB) or other appropriate media (Streptococcus requires blood and Haemophilus requires hemin and NAD). Following incubation overnight, the strains were subcultured onto Mueller Hinton Agar and again incubated overnight. […] Isolated colonies were selected to prepare a starting inoculum equivalent to a 0.5 McFarland standard. […] Antibiotics (stored frozen, thawed and used within 3 hours of thawing) and compounds were further diluted to the desired working concentrations.
(§5) The assays were run as follows. Fifty μL of MHB was added to wells 2-12 of a 96-well plate. One hundred μL of appropriately diluted antibiotic or compound was added to well 1. Fifty μL of antibiotics or compound was removed from well 1 and added to well 2 and the contents of well 2 mixed by pipetting up and down five times. Fifty μL of the mixture in well 2 was removed and added to well 3 and mixed as above. Serial dilutions were continued in the same manner through well 12. Fifty μL was removed from well 12 so that all contained 50 μL. Fifty μL of the working inoculum was then added to all test wells. A growth control well was prepared by adding 50 μL of working inoculum and 50 μL of MHB to an empty well. The plates were then incubated at 37° C. overnight, removed from the incubator and each well was read on a plate reading mirror. The lowest concentration (MIC) of test compound that inhibited the growth of the bacteria was recorded.
(§6) MIC, MIC50 and MIC90 values were determined according to CLSI methodology. S. pneumoniae and H. influenzae isolates were obtained from Eurofins-Medinet and are recent clinical isolates. S. aureus strains were collected from various geographical sources.

[20] = tested on: H. influenzae isolates (Eurofins-Medinet, recent clinical isolates); test: MIC50 and MIC90 analysis (Example 22)
Procedure: as §4, §5, §6

[21] = tested on: S. aureus strains collected from various geographical sources; test: MIC50 and MIC90 analysis (Example 22)
Procedure: as §4, §5, §6

[22] = Pharmacokinetic analysis in Sprague-Dawley rats; conditions: IV, single dose 1 mg/kg, mean
E. coli ATCC 25922 = test: Mouse systemic infection model, E. coli septicemia; conditions: survival after 48 hours
[23] = tested on: S. aureus ATCC 13709 (Smith); test: Mouse systemic infection model, S. aureus septicemia; conditions: survival after 48 hours

**Q.** For `CN(C)CC(C)(C)CNc1nc(Cl)c2c(c1O)C(=O)C1=C(O)[C@]3(O)C(=O)C(C(N)=O)=C(O)[C@@H](N(C)C)[C@@H]3C[C@@H]1C2` [Compound 151], which MIC ([1]; Table 8, read-out: MIC S. aureus ATCC 29213) is on record?
**A.** Its MIC is 0.25 µg/mL (≈ 0.432 µM).

**Q.** And the MIC ([1]; Table 9, read-out: MIC S. aureus ATCC 29213)?
**A.** The MIC was 0.25 µg/mL (≈ 0.432 µM).

**Q.** What about the MIC ([2]; Table 9, read-out: MIC S. aureus ATCC 13709) of the same compound?
**A.** The MIC was 0.5 µg/mL (≈ 0.865 µM).

**Q.** And the MIC ([2]; Table 12, read-out: MIC S. aureus ATCC 13709)?
**A.** Its MIC is 0.5 µg/mL (≈ 0.865 µM).

**Q.** And the MIC ([3]; Table 8, read-out: MIC S. aureus MRSA, tetM)?
**A.** The MIC was 2 µg/mL (≈ 3.46 µM).

**Q.** What about the MIC ([3]; Table 9, read-out: MIC MRSA (tet)M SA161) of the same compound?
**A.** The MIC was 2 µg/mL (≈ 3.46 µM).

**Q.** And the MIC ([4]; Table 8, read-out: MIC S. aureus tetK)?
**A.** The MIC was 0.13 µg/mL (≈ 0.225 µM).

**Q.** And the MIC ([4]; Table 9, read-out: MIC S. aureus SA158 (tet)K)?
**A.** Its MIC is 0.125 µg/mL (≈ 0.216 µM).

**Q.** What about the MIC ([5]; Enterococcus faecalis, ATCC29212, Table 8, read-out: MIC E. faecalis ATCC 29212) of the same compound?
**A.** Its MIC is 0.25 µg/mL (≈ 0.432 µM).

**Q.** What about the “MIC E. faecalis ATCC 29212” value ([5]; Table 9) of the same compound?
**A.** Its value is 0.25 µg/mL (≈ 0.432 µM).

**Q.** What about the MIC ([6]; Table 8, read-out: MIC E. faecalis tetM) of the same compound?
**A.** The MIC was 2 µg/mL (≈ 3.46 µM).

**Q.** And the MIC ([6]; Table 9, read-out: MIC E. faecalis EF159 (tet)M)?
**A.** The MIC was 2 µg/mL (≈ 3.46 µM).

**Q.** What about the MIC ([7]; ATCC49619, Table 8, read-out: MIC S. pneumoniae ATCC 49619) of the same compound?
**A.** Its MIC is 0.063 µg/mL (≈ 0.109 µM).

**Q.** What about the MIC ([7]; ATCC49619, Table 9, read-out: MIC S. pneum ATCC 49619) of the same compound?
**A.** The MIC was 0.016 µg/mL (≈ 0.0277 µM).

**Q.** And the MIC ([8]; Table 8, read-out: MIC S. pneumoniae tetM)?
**A.** Its MIC is 0.5 µg/mL (≈ 0.865 µM).

**Q.** What about the MIC ([8]; Table 9, read-out: MIC S. pneum SP160 (tet)M) of the same compound?
**A.** Its MIC is 0.125 µg/mL (≈ 0.216 µM).

**Q.** What about the MIC ([9]; ATCC25922, Table 8, read-out: MIC E. coli ATCC 25922) of the same compound?
**A.** The MIC was 0.5 µg/mL (≈ 0.865 µM).

**Q.** What about the MIC ([9]; ATCC25922, Table 9, read-out: MIC E. coli ATCC 25922) of the same compound?
**A.** The MIC was 0.5 µg/mL (≈ 0.865 µM).

**Q.** And the MIC ([9]; ATCC25922, Table 12, read-out: MIC E. coli ATCC 25922)?
**A.** Its MIC is 0.25 µg/mL (≈ 0.432 µM).

**Q.** And the MIC ([10]; Table 8, read-out: MIC E. coli tetA)?
**A.** The MIC was 8 µg/mL (≈ 13.8 µM).

**Q.** And the MIC ([10]; Table 9, read-out: MIC E. coli EC155 (tet)A)?
**A.** Its MIC is 8 µg/mL (≈ 13.8 µM).

**Q.** And the MIC [11]?
**A.** Its MIC is 2 µg/mL (≈ 3.46 µM).

**Q.** And the MIC [12]?
**A.** Its MIC is 8 µg/mL (≈ 13.8 µM).

**Q.** What about the “MIC Range” value [13] of the same compound?
**A.** The value was 0.031-4.

**Q.** And the “MIC Range” value [14]?
**A.** Its value is 0.5-8.

**Q.** What about the “MIC Range” value [15] of the same compound?
**A.** The value was “<=0.016-0.25”.

**Q.** And the MIC ([16]; read-out: MIC, TetK Induced)?
**A.** Its MIC is 1 µg/mL.

**Q.** And the MIC ([16]; read-out: MIC, Uninduced)?
**A.** Its MIC is 1 µg/mL.

**Q.** What about the “MIC ratio, TetK induced to uninduced” value ([16]; ratio of TetK induced to uninduced MIC) of the same compound?
**A.** The value was 1.

**Q.** What about the “Effect of expression of (tet)K on activity” value ([16]; result in words) of the same compound?
**A.** The value was “unaffected”.

**Q.** And the MIC ([17]; read-out: MIC, TetM induced)?
**A.** Its MIC is 1 µg/mL.

**Q.** What about the MIC ([17]; read-out: MIC, Uninduced) of the same compound?
**A.** The MIC was 0.5 µg/mL.

**Q.** And the “Ratio (TetM induced / Uninduced)” value ([17]; ratio of MICs)?
**A.** The value was 2.

**Q.** And the “Effect of expression of (tet)M on activity” value ([17]; result in words)?
**A.** The value was “minimally affected”.

**Q.** What about the “E. coli TnT” value [18] of the same compound?
**A.** Its value is 0.7 µg/mL.

**Q.** What about the AUC(0-t) (in vivo; iv, 1 mg/kg) of the same compound?
**A.** Its AUC(0-t) is 4870 ng·h/mL.

**Q.** And the Cmax (in vivo; iv, 1 mg/kg)?
**A.** Its Cmax is 2400 ng/mL.

**Q.** What about the Tmax (in vivo; iv, 1 mg/kg) of the same compound?
**A.** The Tmax was 13.2 min.

**Q.** And the bioavailability (in vivo; oral, 10 mg/kg)?
**A.** The bioavailability was 0.8%.

**Q.** What about the AUC(0-t) (in vivo; po, 10 mg/kg) of the same compound?
**A.** The AUC(0-t) was 395 ng·h/mL.

**Q.** What about the Cmax (in vivo; po, 10 mg/kg) of the same compound?
**A.** Its Cmax is 69.8 ng/mL.

**Q.** And the Tmax (in vivo; po, 10 mg/kg)?
**A.** The Tmax was 49.8 min.

**Q.** And the half-life (in vivo; po, 10 mg/kg)?
**A.** Its half-life is 313 min.

**Q.** And the MIC Range ([19]; S. pneumoniae (n = 20))?
**A.** Its MIC Range is “≦0.016-0.063 μg/ml”.

**Q.** What about the MIC50 ([19]; Streptococcus pneumoniae) of the same compound?
**A.** The MIC50 was ≤ 0.016 µg/mL.

**Q.** And the MIC90 ([19]; Streptococcus pneumoniae)?
**A.** Its MIC90 is 0.063 µg/mL (≈ 0.109 µM).

**Q.** And the MIC Range ([20]; H. influenzae (n = 12))?
**A.** Its MIC Range is 0.25 to 2 µg/mL.

**Q.** What about the MIC50 ([20]; Haemophilus influenzae) of the same compound?
**A.** Its MIC50 is 1 µg/mL (≈ 1.73 µM).

**Q.** What about the MIC90 ([20]; Haemophilus influenzae) of the same compound?
**A.** The MIC90 was 1 µg/mL (≈ 1.73 µM).

**Q.** What about the MIC Range ([21]; S. aureus (n = 20)) of the same compound?
**A.** The MIC Range was 0.063 to 0.5 µg/mL.

**Q.** What about the MIC50 ([21]; Staphylococcus aureus) of the same compound?
**A.** The MIC50 was 0.13 µg/mL (≈ 0.225 µM).

**Q.** And the MIC90 ([21]; Staphylococcus aureus)?
**A.** The MIC90 was 0.25 µg/mL (≈ 0.432 µM).

**Q.** What about the Clobs [22] of the same compound?
**A.** Its Clobs is 3.3723 mL/min/kg.

**Q.** And the Vzobs [22]?
**A.** The Vzobs was 1.25614 L/kg.

**Q.** And the half-life [22]?
**A.** Its half-life is 258 min.

**Q.** And the “PD50 in the mouse septicemia model against E. coli” value (E. coli ATCC 25922; CD-1 mice, IP infection, treatment one hour post-challenge)?
**A.** The value was 17.0 mg/kg.

**Q.** And the PD50 (E. coli ATCC 25922; mouse septicemia, E. coli ATCC 25922, treatment one hour post-challenge)?
**A.** Its PD50 is 17.0 mg/kg.

**Q.** What about the “PD50 in the mouse septicemia model against S. aureus” value ([23]; CD-1 mice, IP infection, intravenous treatment one hour post-challenge) of the same compound?
**A.** The value was 0.36 mg/kg.

**Q.** What about the PD50 ([23]; mouse septicemia, S. aureus ATCC 13709, intravenous treatment one hour post-challenge) of the same compound?
**A.** Its PD50 is 0.36 mg/kg.
